Laboratory results from US10875875B2, “Propionic acid derivatives and methods of use thereof” (Aviara Pharmaceuticals, Inc., priority 2017, dated 2020).

Legend:
α4β1 = α4β1 (Homo sapiens, UniProt P05556+P13612); experiment: α4β1 integrin inhibition, IC50; assay type: binding; details: read-out: α4β1 IC50
α4β7 = biological target: T1, α4β7 (Homo sapiens, UniProt P13612+P26010); experiment: α4β7 integrin inhibition, IC50; assay type: binding
T1 sequence (P13612 34-1032): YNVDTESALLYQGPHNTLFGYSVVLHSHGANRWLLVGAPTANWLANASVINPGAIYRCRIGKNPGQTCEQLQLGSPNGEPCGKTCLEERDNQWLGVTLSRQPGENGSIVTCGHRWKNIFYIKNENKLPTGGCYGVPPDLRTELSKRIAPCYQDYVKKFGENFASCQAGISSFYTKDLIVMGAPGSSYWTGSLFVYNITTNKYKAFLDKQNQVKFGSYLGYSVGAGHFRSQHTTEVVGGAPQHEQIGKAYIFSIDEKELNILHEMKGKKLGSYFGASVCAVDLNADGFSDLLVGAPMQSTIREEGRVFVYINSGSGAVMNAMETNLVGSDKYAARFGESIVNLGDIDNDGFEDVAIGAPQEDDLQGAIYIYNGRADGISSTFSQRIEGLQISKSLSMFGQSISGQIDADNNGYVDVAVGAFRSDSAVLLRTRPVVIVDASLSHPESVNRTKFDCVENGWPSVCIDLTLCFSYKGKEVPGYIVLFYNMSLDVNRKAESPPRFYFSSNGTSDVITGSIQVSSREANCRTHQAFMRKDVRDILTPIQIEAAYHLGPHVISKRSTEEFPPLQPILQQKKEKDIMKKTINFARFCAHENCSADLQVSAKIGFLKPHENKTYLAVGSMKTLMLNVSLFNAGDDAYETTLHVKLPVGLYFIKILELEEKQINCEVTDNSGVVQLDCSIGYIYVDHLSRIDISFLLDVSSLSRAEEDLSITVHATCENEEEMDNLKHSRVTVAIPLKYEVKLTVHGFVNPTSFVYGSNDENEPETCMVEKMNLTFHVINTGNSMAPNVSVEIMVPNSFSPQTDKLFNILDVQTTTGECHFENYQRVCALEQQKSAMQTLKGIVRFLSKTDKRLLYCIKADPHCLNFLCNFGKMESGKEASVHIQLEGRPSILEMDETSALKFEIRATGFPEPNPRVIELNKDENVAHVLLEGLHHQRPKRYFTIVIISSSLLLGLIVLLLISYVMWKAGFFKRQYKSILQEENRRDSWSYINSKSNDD
T1 sequence (P26010 20-798): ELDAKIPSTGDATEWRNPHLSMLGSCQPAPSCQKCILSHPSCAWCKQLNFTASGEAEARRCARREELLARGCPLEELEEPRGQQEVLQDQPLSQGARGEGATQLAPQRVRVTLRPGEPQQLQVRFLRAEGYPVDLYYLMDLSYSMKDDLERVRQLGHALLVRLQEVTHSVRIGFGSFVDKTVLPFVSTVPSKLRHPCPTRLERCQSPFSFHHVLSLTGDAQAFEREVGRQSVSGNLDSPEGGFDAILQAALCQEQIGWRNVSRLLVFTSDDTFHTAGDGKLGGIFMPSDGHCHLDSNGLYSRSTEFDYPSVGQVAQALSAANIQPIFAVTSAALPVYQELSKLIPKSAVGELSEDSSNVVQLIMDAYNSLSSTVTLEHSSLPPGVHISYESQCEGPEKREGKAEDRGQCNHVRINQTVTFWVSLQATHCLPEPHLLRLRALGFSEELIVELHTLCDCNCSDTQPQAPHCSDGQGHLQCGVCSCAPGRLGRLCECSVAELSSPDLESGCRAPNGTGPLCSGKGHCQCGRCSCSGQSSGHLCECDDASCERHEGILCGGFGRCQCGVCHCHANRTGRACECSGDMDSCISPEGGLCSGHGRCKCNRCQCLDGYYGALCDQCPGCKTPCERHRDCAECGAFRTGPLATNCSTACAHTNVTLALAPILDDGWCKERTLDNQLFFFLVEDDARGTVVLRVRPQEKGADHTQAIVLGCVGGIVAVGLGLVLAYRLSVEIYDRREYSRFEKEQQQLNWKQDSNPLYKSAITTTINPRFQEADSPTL

Chain of α4β1 (P05556 21-798, one chain of several): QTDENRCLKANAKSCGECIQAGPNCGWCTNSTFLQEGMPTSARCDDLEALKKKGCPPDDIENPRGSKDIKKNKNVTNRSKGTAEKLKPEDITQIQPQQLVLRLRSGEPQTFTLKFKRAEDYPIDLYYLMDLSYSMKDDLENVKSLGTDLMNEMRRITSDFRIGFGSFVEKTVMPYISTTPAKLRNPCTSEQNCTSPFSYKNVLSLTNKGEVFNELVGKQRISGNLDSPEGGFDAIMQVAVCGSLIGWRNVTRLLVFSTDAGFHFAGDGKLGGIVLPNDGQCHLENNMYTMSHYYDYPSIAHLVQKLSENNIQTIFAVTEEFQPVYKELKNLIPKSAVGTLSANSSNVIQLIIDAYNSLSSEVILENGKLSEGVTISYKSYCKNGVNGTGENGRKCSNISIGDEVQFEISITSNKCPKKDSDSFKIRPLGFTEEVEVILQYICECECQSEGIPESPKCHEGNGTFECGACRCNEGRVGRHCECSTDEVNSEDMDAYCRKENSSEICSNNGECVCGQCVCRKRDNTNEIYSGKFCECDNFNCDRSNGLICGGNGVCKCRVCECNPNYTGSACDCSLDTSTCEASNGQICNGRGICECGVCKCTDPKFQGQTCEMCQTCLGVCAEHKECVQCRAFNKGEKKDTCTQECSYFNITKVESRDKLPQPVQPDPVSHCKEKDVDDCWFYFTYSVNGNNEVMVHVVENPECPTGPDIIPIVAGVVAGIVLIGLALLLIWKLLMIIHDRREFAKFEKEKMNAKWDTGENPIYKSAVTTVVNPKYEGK

| IC50 (α4β1) [nM] | IC50 (α4β7) [nM] | Structure (SMILES) |
| --- | --- | --- |
| < 20 | < 20 | Cc1cccc(C)c1-c1ccc(F)c([C@H](CC(=O)O)NC(=O)Nc2c(O)ccn(C)c2=O)c1 [1-590, sodium (S)-3-(4-fluoro-2′,6′-dimethylbiphenyl-3-yl)-3-(3-(1-methyl-4-oxido-2-oxo-1,2-dihydropyridin-3-yl)ureido)propanoate] |
| < 20 | < 200 | Cc1cccc(C)c1-c1cccc([C@H](CC(=O)O)NC(=O)Nc2c(O)ccn(C)c2=O)c1 [1-502, sodium (S)-3-(2′,6′-dimethylbiphenyl-3-yl)-3-(3-(1-methyl-4-oxido-2-oxo-1,2-dihydropyridin-3-yl)ureido)propanoate] |
| < 20 | < 200 | COc1ccc([C@H](CC(=O)O)NC(=O)Nc2c(O)ccn(C)c2=O)cc1-c1c(C)cccc1C [1-533, sodium (S)-3-(6-methoxy-2′,6′-dimethylbiphenyl-3-yl)-3-(3-(1-methyl-4-oxido-2-oxo-1,2-dihydropyridin-3-yl)ureido)propanoate] |
| < 20 | < 20 | COc1cc(-c2c(C)cccc2C)cc([C@H](CC(=O)O)NC(=O)Nc2c(O)cc(C)n(C)c2=O)c1 [1-580, sodium (S)-3-(3-(1,6-dimethyl-4-oxido-2-oxo-1,2-dihydropyridin-3-yl)ureido)-3-(5-methoxy-2′,6′-dimethylbiphenyl-3-yl)propanoate] |
| < 20 | < 200 | COc1cccc(-c2cc(C)cc([C@H](CC(=O)O)NC(=O)Nc3c(O)ccn(C)c3=O)c2)c1 [1-582, sodium (S)-3-(3′-methoxy-5-methylbiphenyl-3-yl)-3-(3-(1-methyl-4-oxido-2-oxo-1,2-dihydropyridin-3-yl)ureido)propanoate] |
| < 20 | > 200 | Cn1ccc(O)c(NC(=O)N[C@@H](CC(=O)O)c2cccc(-c3ccc(F)cc3F)c2)c1=O [1-488, sodium (S)-3-(2′,4′-difluorobiphenyl-3-yl)-3-(3-(1-methyl-4-oxido-2-oxo-1,2-dihydropyridin-3-yl)ureido)propanoate] |

Continued, compound first:

| Structure (SMILES) | IC50 (α4β1) [nM] | IC50 (α4β7) [nM] |
| --- | --- | --- |
| Cc1cccc(C)c1-c1cc([C@H](CC(=O)O)NC(=O)Nc2c(O)ccn(C)c2=O)ccc1F [1-561, sodium (S)-3-(6-fluoro-2′,6′-dimethylbiphenyl-3-yl)-3-(3-(1-methyl-4-oxido-2-oxo-1,2-dihydropyridin-3-yl)ureido)propanoate] | < 20 | < 20 |
| Cc1noc(C)c1-c1cccc([C@H](CC(=O)O)NC(=O)Nc2c(O)ccn(C)c2=O)c1 [1-560, sodium (S)-3-(3-(3,5-dimethylisoxazol-4-yl)phenyl)-3-(3-(1-methyl-4-oxido-2-oxo-1,2-dihydropyridin-3-yl)ureido)propanoate] | < 20 | > 200 |
| Cc1cc(O)c(NC(=O)N[C@@H](CC(=O)O)c2cccc(-c3ccc(F)cc3F)c2)c(=O)n1C [1-487, sodium (S)-3-(2′,4′-difluorobiphenyl-3-yl)-3-(3-(1,6-dimethyl-4-oxido-2-oxo-1,2-dihydropyridin-3-yl)ureido)propanoate] | < 20 | > 200 |
| Cc1cc(-c2cccc(OC(F)(F)F)c2)cc([C@H](CC(=O)O)NC(=O)Nc2c(O)ccn(C)c2=O)c1 [1-572, sodium (S)-3-(5-methyl-3′-(trifluoromethoxy)biphenyl-3-yl)-3-(3-(1-methyl-4-oxido-2-oxo-1,2-dihydropyridin-3-yl)ureido)propanoate] | < 20 | > 200 |
| COc1cccc(-c2cc([C@H](CC(=O)O)NC(=O)Nc3c(O)c(C)cn(C)c3=O)ccc2OC)c1 [1-527, sodium (S)-3-(3′,6-dimethoxybiphenyl-3-yl)-3-(3-(1,5-dimethyl-4-oxido-2-oxo-1,2-dihydropyridin-3-yl)ureido)propanoate] | < 20 | > 200 |
| COc1cc(-c2c(C)cccc2C)cc([C@H](CC(=O)O)NC(=O)Nc2c(O)ccn(C)c2=O)c1 [1-579, sodium (S)-3-(5-methoxy-2′,6′-dimethylbiphenyl-3-yl)-3-(3-(1-methyl-4-oxido-2-oxo-1,2-dihydropyridin-3-yl)ureido)propanoate] | < 20 | < 20 |
| Cn1ccc(O)c(NC(=O)N[C@@H](CC(=O)O)c2cccc(-c3c(Cl)cccc3Cl)c2)c1=O [1-537, sodium (S)-3-(2′,6′-dichlorobiphenyl-3-yl)-3-(3-(1-methyl-4-oxido-2-oxo-1,2-dihydropyridin-3-yl)ureido)propanoate] | < 20 | < 200 |
| Cn1ccc(O)c(NC(=O)N[C@@H](CC(=O)O)c2ccc(-c3ccc(F)cc3F)s2)c1=O [1-562, sodium (S)-3-(5-(2,4-difluorophenyl)thiophen-2-yl)-3-(3-(1-methyl-4-oxido-2-oxo-1,2-dihydropyridin-3-yl)ureido)propanoate] | < 20 | > 200 |
| Cc1cn(C)c(=O)c(NC(=O)N[C@@H](CC(=O)O)c2cccc(-c3c(C)cccc3C)c2)c1O [1-470, sodium (S)-3-(3-(1,5-dimethyl-4-oxido-2-oxo-1,2-dihydropyridin-3-yl)ureido)-3-(2′,6′-dimethylbiphenyl-3-yl)propanoate] | < 20 | < 200 |
